For one compound, remaining activity and Tracer bound results are on record in PMC13210772, “Dual FLT3/MAPK14 Proteolysis-Targeting Chimera (PROTAC) Induces Potent Acute Myeloid Leukemia Cell Death” (Pharmaceuticals, 2026).

Common to all, as to experiment: NanoBRET CELLinib128
Assay type in all cases: binding

For test [1], the target named is T1, RIOK2 (Homo sapiens, UniProt Q9BVS4).
T1 construct: Full-length kinase ORF (Promega, Madison, WI, USA) cloned in frame with a NanoLuc-vector was transfected into HEK293T cells; host or cells: HEK293T
The settings on record: 100% no effect, 0% complete tracer displacement, read-out: Tracer bound. Here is the method: (§1) To get an impression about the binding strength of the PROTAC MA191 and the reference inhibitor MA68 to other kinases besides FLT3-ITD the binding on a kinase panel of further 128 representative protein kinases at 1 μM concentration was tested using the NanoBRET^TM cellular target engagement assay (CELLinib128 assay, CELLinib GmbH, Frankfurt, Germany). […] In none of the 128 kinases MA191 was able to displace the tracer (inhibitor) used by more than 50%, Table S1, Supplementary Information).
(§2) The CELLinib128 assay was performed by CELLinib GmbH, Frankfurt (Germany) as described previously. In brief: Full-length kinase ORF (Promega, Madison, WI, USA) cloned in frame with a NanoLuc-vector was transfected into HEK293T cells in Opti-MEM without phenol red (Life Technologies, Carlsbad, CA, USA) at a density of 2 × 10^5 cells/mL using FuGENE HD (Promega, E2312) and proteins were allowed to express for 20 h. For CDKs, where indicated below, an excess of an activator without an NLuc-fusion was cotransfected. […] The system was allowed to equilibrate at 37 °C for 2 h and 5% CO2 prior to BRET measurements. For PKCs, a chemical activator PMA was added in a final concentration of 1 µM was added together with test compounds and tracers (Promega, V1171). To measure BRET, NanoBRET^TM NanoGlo substrate + extracellular NanoLuc inhibitor (Promega, N2160) were added as per the manufacturer’s protocol, and filtered luminescence was measured (450 nm BP filter (donor) and 610 nm LP filter (acceptor)). For the 1-shot test compounds, data were normalized to the tracer control and the background control or control compound plateau and an average and SD were calculated. […] For the control compounds competitive displacement data were normalized to the tracer Ctrl and the background Ctrl and then plotted and fitted using GraphPad Prism 10 software using a normalized 3-parameter curve fit with the following equation: Y = 100/(1 + 10^X−LogIC50).

Test [2] addresses T2, MAP4K5 (Homo sapiens, UniProt Q9Y4K4).
T2 construct: Full-length kinase ORF (Promega, Madison, WI, USA) cloned in frame with a NanoLuc-vector was transfected into HEK293T cells; host or cells: HEK293T
Particulars: 100% no effect, 0% complete tracer displacement, read-out: Tracer bound. On the procedure: as §1, §2

The target in test [3] is T3, NEK3 (Homo sapiens, UniProt P51956).
T3 construct: Full-length kinase ORF (Promega, Madison, WI, USA) cloned in frame with a NanoLuc-vector was transfected into HEK293T cells; host or cells: HEK293T
Particulars: 100% no effect, 0% complete tracer displacement, read-out: Tracer bound. On the procedure: as §1, §2

Test [4] addresses T4, JAK2 (Homo sapiens, UniProt O60674).
T4 construct: Full-length kinase ORF (Promega, Madison, WI, USA) cloned in frame with a NanoLuc-vector was transfected into HEK293T cells; host or cells: HEK293T
Particulars: 1 µM; 100% no effect, 0% complete tracer displacement. On the procedure: as §1, §2

Test [5] concerns the target T5, MAPK6 (Homo sapiens, UniProt Q16659).
T5 construct: Full-length kinase ORF (Promega, Madison, WI, USA) cloned in frame with a NanoLuc-vector was transfected into HEK293T cells; host or cells: HEK293T
Particulars: 100% no effect, 0% complete tracer displacement, read-out: Tracer bound. Here is the method: as §1, §2

The target of test [6] is T6, BTK (Homo sapiens, UniProt Q06187).
T6 construct: Full-length kinase ORF (Promega, Madison, WI, USA) cloned in frame with a NanoLuc-vector was transfected into HEK293T cells; host or cells: HEK293T
Particulars: 1 µM; 100% no effect, 0% complete tracer displacement. Here is the method: as §1, §2

Test [7] deals with T7, DCLK3 (Homo sapiens, UniProt Q9C098).
T7 construct: Full-length kinase ORF (Promega, Madison, WI, USA) cloned in frame with a NanoLuc-vector was transfected into HEK293T cells; host or cells: HEK293T
The settings on record: 100% no effect, 0% complete tracer displacement, read-out: Tracer bound. On the procedure: as §1, §2

Test [8] deals with T8, PRKCE-PMA (Homo sapiens, UniProt Q02156).
T8 construct: Full-length kinase ORF (Promega, Madison, WI, USA) cloned in frame with a NanoLuc-vector was transfected into HEK293T cells; host or cells: HEK293T
Particulars: 100% no effect, 0% complete tracer displacement, read-out: Tracer bound. Here is the method:
as §1, §2

In test [9] the target is T9, SRMS (Homo sapiens, UniProt Q9H3Y6).
T9 construct: Full-length kinase ORF (Promega, Madison, WI, USA) cloned in frame with a NanoLuc-vector was transfected into HEK293T cells; host or cells: HEK293T
Particulars: 100% no effect, 0% complete tracer displacement, read-out: Tracer bound. Here is the method: as §1, §2

In test [10] the target is T10, CAMK2A (Homo sapiens, UniProt Q9UQM7).
T10 construct: Full-length kinase ORF (Promega, Madison, WI, USA) cloned in frame with a NanoLuc-vector was transfected into HEK293T cells; host or cells: HEK293T
The settings on record: 100% no effect, 0% complete tracer displacement, read-out: Tracer bound. Here is the method: as §1, §2

For test [11], the target named is T11, STK36 (Homo sapiens, UniProt Q9NRP7).
T11 construct: Full-length kinase ORF (Promega, Madison, WI, USA) cloned in frame with a NanoLuc-vector was transfected into HEK293T cells; host or cells: HEK293T
The settings on record: 100% no effect, 0% complete tracer displacement, read-out: Tracer bound. Here is the method: as §1, §2

Test [12] addresses T12, HUNK (Homo sapiens, UniProt P57058).
T12 construct: Full-length kinase ORF (Promega, Madison, WI, USA) cloned in frame with a NanoLuc-vector was transfected into HEK293T cells; host or cells: HEK293T
Particulars: 100% no effect, 0% complete tracer displacement, read-out: Tracer bound. Here is the method: as §1, §2

The target in test [13] is T13, CDK20-CCNH (Homo sapiens, UniProt Q8IZL9).
T13 construct: Full-length kinase ORF (Promega, Madison, WI, USA) cloned in frame with a NanoLuc-vector was transfected into HEK293T cells; host or cells: HEK293T
The settings on record: 100% no effect, 0% complete tracer displacement, read-out: Tracer bound. On the procedure:
as §1, §2

For test [14], the target named is T14, TRKA (Homo sapiens, UniProt P04629).
T14 construct: Full-length kinase ORF (Promega, Madison, WI, USA) cloned in frame with a NanoLuc-vector; host or cells: HEK293T
Particulars: 100% no effect, 0% complete tracer displacement, read-out: Tracer bound. On the procedure: as §1, §2

For test [15], the target named is T15, RET (Homo sapiens, UniProt P07949).
T15 construct: Full-length kinase ORF (Promega, Madison, WI, USA) cloned in frame with a NanoLuc-vector was transfected into HEK293T cells; host or cells: HEK293T
Particulars: 100% no effect, 0% complete tracer displacement, read-out: Tracer bound. On the procedure: as §1, §2

T9 sequence (Q9H3Y6 whole entry): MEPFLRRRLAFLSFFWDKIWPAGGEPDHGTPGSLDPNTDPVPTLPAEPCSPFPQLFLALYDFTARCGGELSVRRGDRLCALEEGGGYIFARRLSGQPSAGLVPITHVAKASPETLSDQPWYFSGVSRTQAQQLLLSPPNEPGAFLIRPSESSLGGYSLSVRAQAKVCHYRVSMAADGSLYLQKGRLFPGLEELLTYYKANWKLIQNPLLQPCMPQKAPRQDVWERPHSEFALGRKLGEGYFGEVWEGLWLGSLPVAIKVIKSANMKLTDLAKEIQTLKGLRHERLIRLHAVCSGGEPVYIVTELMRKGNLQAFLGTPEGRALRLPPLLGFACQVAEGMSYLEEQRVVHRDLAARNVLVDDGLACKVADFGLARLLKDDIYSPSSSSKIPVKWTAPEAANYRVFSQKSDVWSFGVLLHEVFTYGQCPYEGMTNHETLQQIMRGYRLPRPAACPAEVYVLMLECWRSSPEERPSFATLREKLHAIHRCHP
T7 sequence (Q9C098 whole entry): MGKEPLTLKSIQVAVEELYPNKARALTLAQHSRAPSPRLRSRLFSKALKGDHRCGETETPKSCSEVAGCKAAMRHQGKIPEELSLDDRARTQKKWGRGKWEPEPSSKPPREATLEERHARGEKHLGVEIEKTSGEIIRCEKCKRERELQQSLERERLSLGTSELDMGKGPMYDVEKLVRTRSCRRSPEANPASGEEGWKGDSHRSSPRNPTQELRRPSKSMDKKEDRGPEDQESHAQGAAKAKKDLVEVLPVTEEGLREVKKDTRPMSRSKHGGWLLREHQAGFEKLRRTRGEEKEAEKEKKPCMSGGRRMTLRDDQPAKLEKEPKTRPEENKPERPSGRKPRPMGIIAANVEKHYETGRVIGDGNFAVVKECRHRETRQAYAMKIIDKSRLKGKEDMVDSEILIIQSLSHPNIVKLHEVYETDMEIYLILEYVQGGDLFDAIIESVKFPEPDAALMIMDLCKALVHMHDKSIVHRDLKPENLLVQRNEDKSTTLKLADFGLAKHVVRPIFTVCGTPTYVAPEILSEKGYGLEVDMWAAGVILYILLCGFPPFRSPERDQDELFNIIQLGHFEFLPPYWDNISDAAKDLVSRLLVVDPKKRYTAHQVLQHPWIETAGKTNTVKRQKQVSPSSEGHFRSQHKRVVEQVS
T13 sequence (Q8IZL9 whole entry): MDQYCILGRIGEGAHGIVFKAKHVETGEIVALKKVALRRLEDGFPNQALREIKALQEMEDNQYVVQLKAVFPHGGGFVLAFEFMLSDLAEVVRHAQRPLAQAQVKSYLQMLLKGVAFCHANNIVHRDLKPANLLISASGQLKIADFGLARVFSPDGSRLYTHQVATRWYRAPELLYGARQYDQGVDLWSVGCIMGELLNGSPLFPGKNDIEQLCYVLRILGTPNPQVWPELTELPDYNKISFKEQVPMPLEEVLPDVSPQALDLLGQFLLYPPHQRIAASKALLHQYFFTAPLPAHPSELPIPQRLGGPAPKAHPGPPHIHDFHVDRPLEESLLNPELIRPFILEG
T13 sequence (P51946 whole entry partner): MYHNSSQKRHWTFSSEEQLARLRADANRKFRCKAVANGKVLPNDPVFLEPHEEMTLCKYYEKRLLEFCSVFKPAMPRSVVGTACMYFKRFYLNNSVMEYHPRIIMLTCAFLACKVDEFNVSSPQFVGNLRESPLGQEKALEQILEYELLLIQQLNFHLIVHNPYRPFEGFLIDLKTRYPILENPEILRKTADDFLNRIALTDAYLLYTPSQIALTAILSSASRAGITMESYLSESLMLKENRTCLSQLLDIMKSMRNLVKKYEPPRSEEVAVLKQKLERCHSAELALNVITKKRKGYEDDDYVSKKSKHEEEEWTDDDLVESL
T14 sequence (P04629 33-796): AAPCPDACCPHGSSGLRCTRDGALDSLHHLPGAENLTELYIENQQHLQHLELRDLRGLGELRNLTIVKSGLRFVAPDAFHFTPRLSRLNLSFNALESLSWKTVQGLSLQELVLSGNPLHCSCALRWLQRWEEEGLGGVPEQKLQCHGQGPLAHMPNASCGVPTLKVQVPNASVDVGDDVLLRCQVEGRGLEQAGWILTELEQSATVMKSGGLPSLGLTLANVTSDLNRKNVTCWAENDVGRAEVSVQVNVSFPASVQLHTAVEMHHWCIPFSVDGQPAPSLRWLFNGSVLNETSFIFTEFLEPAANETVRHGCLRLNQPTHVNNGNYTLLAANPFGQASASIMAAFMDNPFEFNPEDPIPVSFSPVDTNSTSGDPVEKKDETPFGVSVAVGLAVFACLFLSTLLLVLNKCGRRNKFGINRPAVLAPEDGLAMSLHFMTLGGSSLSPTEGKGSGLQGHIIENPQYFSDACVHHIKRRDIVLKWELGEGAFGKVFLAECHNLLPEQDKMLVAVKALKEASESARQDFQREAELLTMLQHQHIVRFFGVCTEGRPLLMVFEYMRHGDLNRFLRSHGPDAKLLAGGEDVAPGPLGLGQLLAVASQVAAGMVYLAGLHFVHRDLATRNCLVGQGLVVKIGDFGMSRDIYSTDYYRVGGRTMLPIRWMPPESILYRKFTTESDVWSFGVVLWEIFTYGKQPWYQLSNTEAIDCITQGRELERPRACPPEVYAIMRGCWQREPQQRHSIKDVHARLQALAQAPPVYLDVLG
T15 sequence (P07949 29-1114): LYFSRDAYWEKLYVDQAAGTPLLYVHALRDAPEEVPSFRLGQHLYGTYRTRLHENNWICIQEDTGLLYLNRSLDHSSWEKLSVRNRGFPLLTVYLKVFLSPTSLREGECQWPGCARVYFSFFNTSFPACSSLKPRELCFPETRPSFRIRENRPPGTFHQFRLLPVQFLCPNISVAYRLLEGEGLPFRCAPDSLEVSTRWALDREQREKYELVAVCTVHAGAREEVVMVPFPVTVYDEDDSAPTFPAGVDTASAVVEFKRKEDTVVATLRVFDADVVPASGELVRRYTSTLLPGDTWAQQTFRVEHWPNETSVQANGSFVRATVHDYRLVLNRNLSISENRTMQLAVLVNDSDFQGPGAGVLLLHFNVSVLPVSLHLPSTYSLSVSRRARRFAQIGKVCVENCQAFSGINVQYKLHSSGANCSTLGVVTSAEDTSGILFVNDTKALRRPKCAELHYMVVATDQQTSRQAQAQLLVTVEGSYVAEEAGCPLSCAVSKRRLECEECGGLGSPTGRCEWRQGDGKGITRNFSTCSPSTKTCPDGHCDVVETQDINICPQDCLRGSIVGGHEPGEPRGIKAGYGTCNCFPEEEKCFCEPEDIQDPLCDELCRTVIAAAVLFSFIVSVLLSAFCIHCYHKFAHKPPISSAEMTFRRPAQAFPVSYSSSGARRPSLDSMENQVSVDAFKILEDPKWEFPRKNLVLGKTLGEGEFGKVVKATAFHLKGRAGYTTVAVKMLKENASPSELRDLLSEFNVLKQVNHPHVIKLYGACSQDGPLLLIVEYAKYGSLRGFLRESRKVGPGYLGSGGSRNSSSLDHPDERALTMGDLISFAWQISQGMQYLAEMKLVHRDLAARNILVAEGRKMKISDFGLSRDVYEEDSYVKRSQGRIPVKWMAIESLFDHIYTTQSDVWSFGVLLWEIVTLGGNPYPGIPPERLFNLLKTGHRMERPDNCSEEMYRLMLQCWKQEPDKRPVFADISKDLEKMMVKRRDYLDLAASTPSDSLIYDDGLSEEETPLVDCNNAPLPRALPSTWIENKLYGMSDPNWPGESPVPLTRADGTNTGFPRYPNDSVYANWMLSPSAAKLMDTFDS
T8 sequence (Q02156 whole entry): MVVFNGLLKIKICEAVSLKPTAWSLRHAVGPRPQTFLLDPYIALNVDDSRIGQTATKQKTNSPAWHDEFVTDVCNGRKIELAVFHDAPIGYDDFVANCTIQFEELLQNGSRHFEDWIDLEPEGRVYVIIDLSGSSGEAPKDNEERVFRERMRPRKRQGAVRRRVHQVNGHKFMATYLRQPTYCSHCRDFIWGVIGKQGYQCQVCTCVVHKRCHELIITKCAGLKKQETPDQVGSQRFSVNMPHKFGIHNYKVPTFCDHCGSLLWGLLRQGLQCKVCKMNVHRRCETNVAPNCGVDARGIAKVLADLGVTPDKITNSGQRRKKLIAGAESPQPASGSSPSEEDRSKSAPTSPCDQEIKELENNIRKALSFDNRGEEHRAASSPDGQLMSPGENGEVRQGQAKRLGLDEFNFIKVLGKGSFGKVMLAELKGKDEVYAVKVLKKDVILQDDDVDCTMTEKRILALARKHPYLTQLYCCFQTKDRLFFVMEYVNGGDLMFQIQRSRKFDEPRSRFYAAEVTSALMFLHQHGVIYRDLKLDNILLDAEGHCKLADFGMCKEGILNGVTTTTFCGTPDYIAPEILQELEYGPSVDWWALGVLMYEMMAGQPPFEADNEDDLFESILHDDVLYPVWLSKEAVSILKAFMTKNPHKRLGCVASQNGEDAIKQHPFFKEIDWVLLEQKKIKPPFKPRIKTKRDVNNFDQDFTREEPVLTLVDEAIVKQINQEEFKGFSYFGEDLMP
T3 sequence (P51956 whole entry): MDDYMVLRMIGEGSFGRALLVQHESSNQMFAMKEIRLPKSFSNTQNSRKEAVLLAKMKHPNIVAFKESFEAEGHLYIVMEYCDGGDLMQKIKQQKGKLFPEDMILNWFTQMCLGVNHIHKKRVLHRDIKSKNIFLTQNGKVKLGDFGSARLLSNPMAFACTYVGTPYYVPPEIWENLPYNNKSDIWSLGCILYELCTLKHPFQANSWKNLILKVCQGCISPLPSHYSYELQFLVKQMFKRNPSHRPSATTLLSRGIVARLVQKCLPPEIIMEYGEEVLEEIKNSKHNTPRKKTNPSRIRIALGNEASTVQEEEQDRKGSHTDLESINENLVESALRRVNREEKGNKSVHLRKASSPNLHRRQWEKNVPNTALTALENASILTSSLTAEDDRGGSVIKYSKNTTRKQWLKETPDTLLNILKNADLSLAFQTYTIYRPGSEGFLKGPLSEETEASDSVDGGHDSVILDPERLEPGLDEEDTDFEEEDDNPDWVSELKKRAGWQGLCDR

On to `Cc1ncsc1-c1ccc([C@H](C)NC(=O)[C@@H]2C[C@@H](O)CN2C(=O)[C@@H](NC(=O)[C@H]2CC[C@H](C(=O)N3CCN(CCNC(=O)c4cc(Oc5ccc(NC(=O)Nc6cc(C(C)(C)C)on6)cc5)ccn4)CC3)CC2)C(C)(C)C)cc1` [MA191, 4-(4-(3-(5-(tert-Butyl)isoxazol-3-yl)ureido)phenoxy)-N-(2-(4-(trans-4-(((S)-1-((2S,4R)-4-hydroxy-2-(((S)-1-(4-(4-methylthiazol-5-yl)phenyl)ethyl)carbamoyl)pyrrolidin-1-yl)-3,3-dimethyl-1-oxobutan-2-yl)carbamoyl)cyclohexanecarbonyl)piperazin-1-yl)ethyl)picolinamide], for which the remaining activity at 1 µM is 115% in test [1]; 94% in test [2]; 100% in test [3]; 120% in test [5]; 102% in [7]; 78.3% in test [8]. Further, the remaining activity at 1 µM in [9] is 94.4%; in test [10], 102%; in [11] it was 119%; in test [12], 103%; in test [13], 108%; in test [14], 103%. The remaining activity at 1 µM in [15] is 83.5%. Also, the Tracer bound in [4] turned out to be 105.7%; in test [6], 120.0%.
